US6004905A, “Hyperabas: biologically active abscisic acid analogs with unsaturated carbon substituents at the 8'-methyl or 9'-methyl carbon atoms” (National Research Council of Canada, priority 1998, dated 1999)
Where two headings read alike, the source gives them in different places.

Key:
rice seedling leaves = conditions: Nakano et al. 1995; cited from earlier work
excised wheat embryos = experiment: Wheat embryo germination inhibition; assay type: in vivo, Triticum aestivum L. cv. Clark's Cream; conditions: in vivo
Experimental: Grains of soft white wheat (Triticum aestivum L. cv. Clark's Cream) were used. For bioassay, embryos with some adhering endosperm and pericarp attached were cut from the grains with a razor blade. Analogs were prepared by dissolving into a minimal amount of DMSO to prepare a 0.1 M solution, and then diluted with […], pH 5.8, to 0.01, 0.1, 1, 10 and 100 μM. For each analog concentration six replicate germination assays were conducted on 10 embryos each at 30° C. Embryos were incubated in Petri dishes (100×15 mm) containing 6 ml solution.

α-amylase activity = conditions: Nakano et al. 1995; cited from earlier work
lettuce seed = conditions: Nakano et al. 1995; cited from earlier work
[1] = test system: suspension-cultured corn cells (var. Black Mexican Sweet); experiment: Growth inhibition of suspension-cultured corn cells; assay type: cell-based, corn (maize); conditions: four days
[2] = test system: ABA-responsive cor6.6 promoter; experiment: ABA-inducible gene expression (GUS activity) in transgenic tobacco seedlings containing Pcor6.6-GUS; assay type: in vivo, transgenic tobacco (promoter from Arabidopsis thaliana); conditions: 24 hours (FIG. 15)
From the text: The results shown are an average of duplicate assays on samples containing 34 seedlings.
The results shown are an average of duplicate samples containing cotyledons from 34 seedlings.

[3] = test system: stomatal opening of spiderwort; conditions: Nakano et al. 1995, cited from earlier work
[4] = background; cited from earlier work
[5] = test system: suspension-cultured corn cells; conditions: Balsevich et al 1994; cited from earlier work
[6] = test system: Interior spruce seedlings; experiment: Drought avoidance of transplanted spruce seedlings; assay type: in vivo
From the text: (§1) The ABA analog was applied as a spray-root drench that stimulated application through a nursery irrigation system. Seedlings with intact root-soil plugs were placed in a container, and ABA analog treatments were applied as a top drench. Treated seedlings were kept in the large container where the treatment flow-through was allowed to be re-absorbed into the plugs over a two day period. This ensured that all of the treatment was taken up by the root plugs and was available to seedlings. During testing, root-soil plugs were kept intact, enabling ABA analog treatments to be retained in close contact with the root system.
(§2) For this testing program, ABA analog #365 was applied at 10^-4, […] and 10^-3 M concentrations. Analogs were dissolved in an acetone solution (@ 1%) to prepare ABA analog treatments. In addition, there was a control treatment of acetone only @ 1%. The analog treatments were applied one time, two days before the start of experimental measurements. Each seedling received approximately 20 ml of either an analog or a control solution.
Just after treatment application, seedlings (n=75) were put through a rapid eight to fifteen day drought. Seedlings were watered to saturation during ABA analog application. After 24 to 48 hours, when all of the ABA analog solution was absorbed by the seedling root plug, root systems were enclosed in a plastic bag and placed in a darkened chamber with the shoot systems exposed to the above described controlled environment conditions. Seedlings were allowed to dry out through shoot transpiration. Gas exchange parameters (Pn, and gwv) of seedlings (n=8) from each treatment were measured during each daylight period. At each gas exchange measurement time, seedlings were measured with a pressure chamber to determine .psi., Changes in gas exchange parameters and seedling water balance were determined over time.
A study was conducted to determine how the ABA analog influenced seedling response to potentially lethal soil drought. It was hypothesized that ABA analogs limit water use and delay deleterious physiological conditions in seedlings under limited soil water availability. The ABA analog would allow seedlings to avoid a potentially lethal drought stress to survive and have normal morphological development.
Just after treatment application, seedlings (n=75) were put through a rapid drought. Over the drought, seedlings were measured with a pressure chamber to determine .psi..

[7] = test system: Interior spruce seedlings; experiment: Growth of transplanted spruce seedlings; assay type: in vivo
[8] = test system: Interior spruce seedlings; experiment: Gas exchange of spruce seedlings; assay type: in vivo; conditions: optimum conditions; longer periods at higher concentrations (FIGS. 19-21)
From the text: as §1
as §2, with “Each seedling received approximately 20 ml of either an analog or a control solution.” left out
Gas exchange parameters (net photosynthesis (Pn), needle conductance (gwv), water use efficiency-not reported) were determined on the seedlings treated with the ABA analog at each concentration (n=8). […] Gas exchange parameters were assessed 9 times across the first 20 days of the measurement period. Thereafter, gas exchange parameters were periodically assessed at 5 times from day 20 until the 52nd day of the measurement period.

CC[C@@]1(C)CC(=O)C=C(C)[C@]1(O)/C=C/C(C)=C\C(=O)O [(+)-8'-methyl ABA]
activity in elongation of rice seedling leaves (rice seedling leaves): more active than (+)-ABA | germination inhibitory activity, wheat embryos (in words) (excised wheat embryos): more active than (+)-ABA | blocking of GA3 stimulated α-amylase activity (α-amylase activity): nearly as active as (+)-ABA | lettuce seed germination inhibition (lettuce seed): more active than (+)-ABA | growth inhibition activity (comparison in words) [1]: comparable to that produced by (+)-ABA | fold weaker than ABA as inducer of GUS [2]: about 3 fold | activity in stomatal opening [3]: more active than (+)-ABA | activity in stomatal opening ([3]; listed as 8'-methyl analog): only slightly weaker than ABA

CC(=C/C(=O)O)/C=C/[C@]1(O)[C@@]2(C)CO[C@]1(C)CC(=O)C2 [Phaseic acid, phaseic acid]
activity in most assays [4]: little or no activity in most assays | shift (elevation) in pH of the medium (literature) [5]: not produced by PA

Methyl 8'-methylene ABA [PBI-365]
drought avoidance capability, dependence on treatment concentration ([6]; FIG. 17): improved with higher treatment concentrations | needle conductance ([6]; drought conditions): reduction in needle conductance | seedling water balance ([6]; drought conditions): improved seedling water balance under drought conditions | drought avoidance capability ([6]; range of drought conditions): excellent drought avoidance capability | effect on seedling growth ([7]; moderate and severe drought conditions): no definitive effect on seedling growth | effect on seedling growth ([7]; near lethal drought conditions): positive influence on growth | long term effects on growth ([7]; optimum soil moisture conditions (FIG. 18)): no long term negative effects on growth | duration of reduction in gas exchange capability [8]: one to three
